Results as given in US10400008B2, “Modulators of the SRC-kinase activity for preventing or treating metastatic cancer” (Cancer Research Technology Limited, priority 2013, dated 2019).
Values joined by “and” are separate entries in the source; they are usually repeats but may differ in a detail not shown here. Identical values can stand only once.

How the values were obtained:
[1] = test system: PC-3 cells; assay: PC-3 cell proliferation, WST-1; type: cell-based, human; conditions: 100 pM-1 μM, WST-1 at days 3, 5, 7, 9; statistically significant with all doses above 100 pM
Experimental: We have studied the effects of Val201 on cell proliferation of the ER positive human prostate cancer cell line PC-3 in vitro and growth and metastatis in vivo in an orthotopic xenograft model. The proliferation effects were studied for 100 pM, 1 nM, 10 nM, 100 nM and 1 μM concentrations of VAL201 by measuring WST-1 values at days 3, 5, 7 and 9. Groups with vehicle and 1 μM gemcitabine as reference compound were included in the study. The xenograft study was performed with 6-7 week-old immunodeficient BALB/c nude mice that were allocated to 6 groups (with n=15/group) according to the body weight, one group receiving vehicle and the others VAL201 at doses 0.04, 0.4, 4, 10 and 20 mg/kg. PC-3 cells in Matrigel were inoculated orthotopically into the prostate. Subcutaneous dosing was started at day 1 and continued daily for 28 days. The mice were weighed twice a week. Orthotopic tumors were measured by calliper and the prostate and the regional lymph nodes were harvested at sacrifice. Metastases in lymph nodes were determined from HE stained paraffin sections.

[2] = molecular target: AR association with Src-SH3 domain (Homo sapiens, UniProt P12931); conditions: androgen-challenged LNCaP cells, reference 10; cited from earlier work
AR association with Src-SH3 domain, sequence (P12931 2-536 limits assumed): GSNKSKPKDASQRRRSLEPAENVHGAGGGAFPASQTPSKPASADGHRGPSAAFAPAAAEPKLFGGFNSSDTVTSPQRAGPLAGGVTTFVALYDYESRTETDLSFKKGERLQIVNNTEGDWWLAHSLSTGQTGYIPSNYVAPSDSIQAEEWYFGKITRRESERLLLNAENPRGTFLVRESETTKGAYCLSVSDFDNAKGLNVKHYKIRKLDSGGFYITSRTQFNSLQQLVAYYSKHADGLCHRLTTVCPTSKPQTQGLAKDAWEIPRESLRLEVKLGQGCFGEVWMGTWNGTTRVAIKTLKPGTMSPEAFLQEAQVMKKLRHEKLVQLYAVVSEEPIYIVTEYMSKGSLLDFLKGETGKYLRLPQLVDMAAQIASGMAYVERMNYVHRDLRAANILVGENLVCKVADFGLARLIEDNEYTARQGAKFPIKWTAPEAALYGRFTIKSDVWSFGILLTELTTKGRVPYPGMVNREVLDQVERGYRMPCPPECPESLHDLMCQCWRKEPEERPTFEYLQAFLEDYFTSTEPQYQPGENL

[3] = test system: plugs of uterine tissue (endometriosis lesions); assay: Dose ranging prevention study: lesion burden, growth and establishment of transplanted uterine tissue plugs; type: in vivo, C57BL6 mice; conditions: for Lesion establishment, single plug (P1-P4, M1, M2): 1 or 0 per plug, individual mouse; for Lesion establishment, single plug (P1-P4, M1, M2) / Lesion burden, Ave / Lesion growth, Ave / Lesion burden, Mean / Lesion establishment, Mean / Lesion growth, Mean / Lesion burden, single plug (P1-P6) / Lesion growth, single plug (P1-P4, M1, M2) / Lesion establishment, Ave: prevention; for Lesion burden, Ave / Lesion growth, Ave: average per mouse; for lesion burden / lesion growth: control 7.18; for Lesion burden, Mean / Lesion establishment, Mean / Lesion growth, Mean: group mean; for Lesion burden, single plug (P1-P6) / Lesion growth, single plug (P1-P4, M1, M2): individual mouse and plug; for Lesion establishment, Ave: per mouse
[4] = test system: HT1080 cells; assay: Migration in Trans-well filters and wound healing of HT1080 cells; type: cell-based, human; conditions: 6 h, peptide 1 nM
Experimental: FIG. 4: The S1 peptide inhibits EGF-stimulated migration and MMP-9 secretion in HT1080 cells. Quiescent HT1080 cells were used. In A, cells were left untreated or treated for 6 h with the indicated compounds. MMP-9 release was assayed as described in Methods. In B, cells were allowed to migrate for 6 h in Trans-well filters in the absence or presence of the indicated compounds. Migrated cells were stained and counted as reported in Methods. In A and B, data were expressed as relative increase. Mean and SEM is shown. n represents the number of experiments. In C, cells were wounded and then left unstimulated or stimulated for 6 h with the indicated compounds. Contrast-phase images are representative of 3 different experiments, each performed in duplicate.
BrdU incorporation, migration and wound healing analysis were done as described (3, 11). MMP-9 activity was assayed (12, 13), using the fluorescent AK411 kit (BIOMOL Res. Lab.).

[5] = test system: offspring from dosed females; conditions: mouse, in vivo
Source text: Offspring from dosed females were mated and checked for fertility to determine possible inheritable effects.

[6] = molecular target: T1, Src (Homo sapiens, UniProt P12931); assay: Src kinase assay in immune-complexes with enolase as substrate, EGF-stimulated HT1080 cells; type: cell-based; conditions: EGF 100 ng/ml 10 min, peptide 1 nM
T1 construct: lysates were immune-precipitated with the anti-Src MAb and Src activity in immune-complexes was assayed using enolase as a substrate; endogenous in cells; host or cells: HT1080 human fibrosarcoma cells
T1 sequence (P12931 whole entry): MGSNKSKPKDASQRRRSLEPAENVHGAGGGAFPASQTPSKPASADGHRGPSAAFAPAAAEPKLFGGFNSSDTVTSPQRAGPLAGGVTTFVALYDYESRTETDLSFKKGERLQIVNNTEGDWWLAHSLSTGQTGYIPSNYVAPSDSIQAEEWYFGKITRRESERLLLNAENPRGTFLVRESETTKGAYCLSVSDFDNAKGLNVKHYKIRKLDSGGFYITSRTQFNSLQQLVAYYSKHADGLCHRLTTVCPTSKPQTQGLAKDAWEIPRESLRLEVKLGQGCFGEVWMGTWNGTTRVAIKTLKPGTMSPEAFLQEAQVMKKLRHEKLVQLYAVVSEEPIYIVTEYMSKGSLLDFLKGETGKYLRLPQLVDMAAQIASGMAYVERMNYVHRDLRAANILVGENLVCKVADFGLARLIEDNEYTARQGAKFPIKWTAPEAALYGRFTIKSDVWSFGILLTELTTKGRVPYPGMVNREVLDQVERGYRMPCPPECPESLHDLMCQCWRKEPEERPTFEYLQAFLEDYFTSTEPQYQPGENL
Experimental: (§1) FIG. 3: Inhibition by S1 peptide of AR/Src complex, Src activation and DNA synthesis triggered by EGF in HT1080 cells. Quiescent HT1080 cells were used. The cells were left un-stimulated or stimulated for 10 min with EGF (at 100 ng/ml; Roche) in the absence or presence of S1 or Ss peptide (both at 1 nM). Casodex (at 10 μM) was used for comparison with the S1 peptide. The same concentrations of peptides and Casodex were used throughout the experiments. Upper section in A, the Western blot of HT1080 cell lysates with anti-EGFR antibody is shown. […] Lower section in A, lysates were immune-precipitated with anti EGFR Ab and proteins in immune-complexes were detected using antibodies against the indicated proteins. In B, lysates were immune-precipitated with the anti-Src MAb and Src activity in immune-complexes was assayed using enolase as a substrate. In C, cells on coverslips were left untreated or treated for 18 h with the indicated compounds. After in vivo pulse with BrdU (100 μM; Sigma), BrdU incorporation was analyzed by IF and expressed as % of total nuclei. Mean and SEM are shown. n represents the number of experiments.
(§2) Src tyrosine kinase was immune-precipitated, detected and assayed using enolase as a substrate (15). Src, EGF-R and tubulin were detected from cell lysates using appropriate antibodies (7). AR was immune-precipitated and detected as reported (3). […]

[7] = molecular target: T2, AR/Src complex (Homo sapiens, UniProt P12931); assay: EGFR/AR/Src association by immunoprecipitation in EGF-stimulated HT1080 cells; type: cell-based; conditions: EGF 100 ng/ml 10 min, peptide 1 nM
T2 construct: endogenous in cells; host or cells: HT1080 human fibrosarcoma cells
T2 sequence (P12931 2-536 limits assumed, one chain of several): as the sequence (P12931 2-536 limits assumed) above
Experimental: as §1, §2

[8] = test system: endometriosis lesion; assay: In-vivo model of endometriosis (K-ras transgenic donor tissue in wild-type animals), first study; set-up: species or system mice; conditions: injected for 21 days, four treated animals
Experimental: In a first study, a total of 4 treatment and 5 control animals were generated in a novel in-vivo model of endometriosis (Research Horizons, University of Cambridge, 2009 Issue 8, GB 0715635.9) K-rasV12/Ah-Cre transgenic mice were crossed with Rosa26R mice to generate KrasV12+/−/Ah-Cre+/−/ROSA26R-LacZ+/− transgenic mice. The F1 offspring were inbred to generate F2 K-rasV12+/−/Ah-Cre+/+/ROSA26R-LacZ+/+ transgenic mice. The presence of the transgenes was determined by PCR using gene specific primers for K-ras, Cre and Rosa26R-LacZ. Tissue was collected from donor animals previously treated with hormones etc. and was divided between wild-type animals that were then injected with drug or vehicle for 21 days.

[9] = 1 ng/mouse s.c. daily, listed as ValiRx1
[10] = 10 ng/mouse s.c. daily, listed as ValiRx1
[11] = 100 ng/mouse s.c. daily, listed as ValiRx1
[12] = first of three dose groups (1 ng, 10 ng, 100 ng daily s.c.)
[13] = second of three dose groups (1 ng, 10 ng, 100 ng daily s.c.)
[14] = third of three dose groups (1 ng, 10 ng, 100 ng daily s.c.)

Ac-PPPHPHARIK-NH2 [VAL001]
PC-3 cell proliferation [1]: dose-dependent inhibition
AR association with Src-SH3 domain [2]: competes
Lesion establishment, single plug (P1-P4, M1, M2) [3, 9]: 1 (29×) and 0
Lesion establishment, single plug (P1-P4, M1, M2) [3, 10]: 1 (29×) and 0
Lesion establishment, single plug (P1-P4, M1, M2) ([3]; 100 ng/mouse s.c. daily): 1
Lesion burden, Ave [3, 9]: 6.5 mm^2 and 8.5 mm^2 and 1.1 mm^2 and 1.9 mm^2 and 12.1 mm^2
Lesion growth, Ave [3, 9]: 6.5 mm^2 and 8.5 mm^2 and 1.3 mm^2 and 1.9 mm^2 and 12.1 mm^2
Lesion burden, Ave [3, 10]: 2.9 mm^2 and 6.7 mm^2 and 11.3 mm^2 and 3.3 mm^2 and 3.5 mm^2
Lesion growth, Ave [3, 10]: 2.9 mm^2 and 6.7 mm^2 and 11.3 mm^2 and 3.3 mm^2 and 4.2 mm^2
Lesion burden, Ave [3, 11]: 11.8 mm^2 and 1.8 mm^2 and 3.2 mm^2 and 3.0 mm^2 and 2.9 mm^2
Lesion growth, Ave [3, 11]: 11.8 mm^2 and 1.8 mm^2 and 3.2 mm^2 and 3.0 mm^2 and 2.9 mm^2
lesion growth following treatment ([3]; daily 1 ng, 10 ng or 100 ng s.c., dosed group vs control): significantly reduced
lesion burden [3, 12]: 6.02 mm^2
lesion growth [3, 12]: 6.23 mm^2
Lesion burden, Mean ([3]; 1 ng/mouse s.c. daily): 6.02 mm^2
Lesion establishment, Mean ([3]; 1 ng/mouse s.c. daily): 96.67%
Lesion growth, Mean ([3]; 1 ng/mouse s.c. daily): 6.23 mm^2
Lesion burden, Mean ([3]; 10 ng/mouse s.c. daily): 5.53 mm^2
Lesion establishment, Mean ([3]; 10 ng/mouse s.c. daily): 96.67%
Lesion growth, Mean ([3]; 10 ng/mouse s.c. daily): 5.72 mm^2
Lesion burden, Mean ([3]; 100 ng/mouse s.c. daily): 4.52 mm^2
Lesion establishment, Mean ([3]; 100 ng/mouse s.c. daily): 100.00%
Lesion growth, Mean ([3]; 100 ng/mouse s.c. daily): 4.52 mm^2
Lesion burden, single plug (P1-P6) [3, 9]: 1.1 mm^2 (3×) and 3.1 mm^2 and 2.5 mm^2 and 4.2 mm^2 and 16.7 mm^2 and 15.2 mm^2 and 3.8 mm^2 (2×) and 0.2 mm^2 (3×) and 6.2 mm^2 and 0.5 mm^2 and 9.4 mm^2 and 0.0 mm^2 and 3.5 mm^2 (2×) and 17.0 mm^2 and 11.2 mm^2 and 8.0 mm^2 (2×) and 15.1 mm^2 and 5.7 mm^2 and 10.2 mm^2 and 10.6 mm^2 and 16.6 mm^2 and 1.8 mm^2 and 0.1 mm^2
Lesion growth, single plug (P1-P4, M1, M2) [3, 9]: 1.131 mm^2 (3×) and 3.142 mm^2 and 2.545 mm^2 and 4.155 mm^2 and 16.74 mm^2 and 15.21 mm^2 and 3.801 mm^2 (2×) and 0.196 mm^2 (3×) and 6.158 mm^2 and 0.503 mm^2 and 9.425 mm^2 and 3.456 mm^2 and 3.464 mm^2 and 16.96 mm^2 and 11.2 mm^2 and 8.042 mm^2 (2×) and 15.1 mm^2 and 5.694 mm^2 and 10.18 mm^2 and 10.56 mm^2 and 16.62 mm^2 and 1.767 mm^2 and 0.126 mm^2
Lesion burden, single plug (P1-P6) [3, 10]: 1.0 mm^2 (3×) and 3.5 mm^2 (5×) and 10.9 mm^2 and 7.3 mm^2 and 10.0 mm^2 and 4.5 mm^2 (2×) and 12.6 mm^2 and 7.0 mm^2 and 9.6 mm^2 and 3.1 mm^2 (2×) and 1.1 mm^2 and 2.5 mm^2 and 0.2 mm^2 and 6.7 mm^2 and 7.1 mm^2 and 5.4 mm^2 and 21.1 mm^2 and 12.1 mm^2 and 3.0 mm^2 and 0.0 mm^2 and 4.0 mm^2 and 9.7 mm^2
Lesion growth, single plug (P1-P4, M1, M2) [3, 10]: 0.95 mm^2 (3×) and 3.464 mm^2 (5×) and 10.95 mm^2 and 7.288 mm^2 and 10.02 mm^2 and 4.524 mm^2 (2×) and 12.57 mm^2 and 7.037 mm^2 and 9.621 mm^2 and 3.142 mm^2 (2×) and 1.131 mm^2 and 2.545 mm^2 and 0.196 mm^2 and 6.739 mm^2 and 7.069 mm^2 and 5.372 mm^2 and 21.11 mm^2 and 12.06 mm^2 and 2.969 mm^2 and 3.958 mm^2 and 9.66 mm^2
Lesion burden, single plug (P1-P6) [3, 11]: 7.0 mm^2 and 18.5 mm^2 and 11.0 mm^2 and 4.5 mm^2 and 2.8 mm^2 (3×) and 2.3 mm^2 (3×) and 2.0 mm^2 (2×) and 3.1 mm^2 and 3.5 mm^2 (3×) and 1.5 mm^2 and 4.9 mm^2 and 8.4 mm^2 and 12.6 mm^2 and 13.2 mm^2 and 0.2 mm^2 and 1.0 mm^2 and 0.3 mm^2 (2×) and 3.8 mm^2 (2×) and 7.5 mm^2 and 2.5 mm^2 and 1.8 mm^2
Lesion growth, single plug (P1-P4, M1, M2) [3, 11]: 7.037 mm^2 and 18.47 mm^2 and 11 mm^2 and 4.453 mm^2 and 2.827 mm^2 (2×) and 2.27 mm^2 (3×) and 2.011 mm^2 (2×) and 3.142 mm^2 and 3.464 mm^2 (3×) and 1.539 mm^2 and 4.909 mm^2 and 8.357 mm^2 and 12.57 mm^2 and 13.2 mm^2 and 0.196 mm^2 and 0.95 mm^2 and 0.283 mm^2 (2×) and 3.801 mm^2 (2×) and 7.548 mm^2 and 2.545 mm^2 and 2.835 mm^2 and 1.767 mm^2
Lesion establishment, Ave [3, 9]: 100% (4×) and 83.33%
Lesion establishment, Ave [3, 10]: 100% (4×) and 83.33%
Lesion establishment, Ave ([3]; 100 ng/mouse s.c. daily): 100%
lesion burden [3, 13]: 5.53 mm^2
lesion growth [3, 13]: 5.72 mm^2
lesion burden [3, 14]: 4.52 mm^2
lesion growth [3, 14]: 4.52 mm^2
EGF-increased motility [4]: inhibited at a similar extent
fertility of offspring from dosed females [5]: no abnormalities noted
EGF stimulation of Src activity [6]: almost completely abolished
EGF-induced AR/Src association and AR/Src association with EGF-R [7]: abolishes
absence of lesion following treatment [8]: three showed complete absence of lesion
